Results as given in ChEMBL document CHEMBL1806349, “Improved performance by replacing iminodiacetic residues with glyceryl residues in symmetrically branched oligoglycerols” (Bioorg Med Chem Lett, 2011).
Values after ≈ are worked out from the molar mass of the structure shown.

Columns and labels:
[1] = Solubility of the compound in water; format: physicochemical
[2] = AUC (0 to 24 hrs) in iv dosed Crl:CD(SD) rat; format: ADME, organism-based; parameters: time < 24 hr, route intravenous; settings: plasma

solubility [1] [mM] | AUC(0-t) at 24 h [2] [ng·h/mL] | Compound
21 (≈ 12.8 mg/mL) | – | O=C(CCC(=O)N(CC(=O)NC(CO)CO)CC(=O)NC(CO)CO)NCCCCCCCCNC(=O)c1ccccc1
350 (≈ 199 mg/mL) | – | O=C(CCC(=O)NC(COC(CO)CO)COC(CO)CO)NCCCCCCCCNC(=O)c1ccccc1
– | 95100 | CCCCCCCCCCCCCCCCCC(=O)OCC(CO[P+]([O-])(O)OCCNC(=O)CCC(=O)N(CC(=O)NC(COC(COC(CO)CO)COC(CO)CO)COC(COC(CO)CO)COC(CO)CO)CC(=O)NC(COC(COC(CO)CO)COC(CO)CO)COC(COC(CO)CO)COC(CO)CO)OC(=O)CCCCCCCCCCCCCCCCC (centres undefined)
– | 53100 | CCCCCCCCCCCCCCCCCC(=O)OCC(CO[P+]([O-])(O)OCCNC(=O)CCC(=O)N(CC(=O)N(CC(=O)NC(COC(CO)CO)COC(CO)CO)CC(=O)NC(COC(CO)CO)COC(CO)CO)CC(=O)N(CC(=O)NC(COC(CO)CO)COC(CO)CO)CC(=O)NC(COC(CO)CO)COC(CO)CO)OC(=O)CCCCCCCCCCCCCCCCC (centres undefined)
